Results published in patent publication US6150382A, “Thio acid derived monocyclic n-heterocyclics as anticoagulants” (Berlex Laboratories, Inc., priority 1999, dated 2000).
Where a SMILES comes first, the peptide text is derived from it. [ ]: non-standard residue; d: D form. The star is where a group is joined. pNA = O=[N+]([O-])c1ccc(N*)cc1

Tests used:
[1] = biological target: T1, Human tissue plasminogen activator (tPA) (Two chains, Sigma) (Homo sapiens, UniProt P00750); assay: In vitro chromogenic assay for tissue plasminogen activator; format: biochemical; settings: substrate concentration stated equal to Km under the present assay conditions; pH 7.5, ambient temperature; read-out: Km (S2288)
T1 construct: purchased Sigma
T1 sequence (P00750 311-562 limits assumed): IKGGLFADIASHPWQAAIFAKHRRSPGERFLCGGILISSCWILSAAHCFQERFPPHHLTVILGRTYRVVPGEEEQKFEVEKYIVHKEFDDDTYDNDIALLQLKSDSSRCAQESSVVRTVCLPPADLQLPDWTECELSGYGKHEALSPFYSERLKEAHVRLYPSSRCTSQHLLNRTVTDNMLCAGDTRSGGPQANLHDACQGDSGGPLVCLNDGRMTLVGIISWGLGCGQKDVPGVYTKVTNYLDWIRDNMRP
T1 sequence (P00750 36-310 partner limits assumed): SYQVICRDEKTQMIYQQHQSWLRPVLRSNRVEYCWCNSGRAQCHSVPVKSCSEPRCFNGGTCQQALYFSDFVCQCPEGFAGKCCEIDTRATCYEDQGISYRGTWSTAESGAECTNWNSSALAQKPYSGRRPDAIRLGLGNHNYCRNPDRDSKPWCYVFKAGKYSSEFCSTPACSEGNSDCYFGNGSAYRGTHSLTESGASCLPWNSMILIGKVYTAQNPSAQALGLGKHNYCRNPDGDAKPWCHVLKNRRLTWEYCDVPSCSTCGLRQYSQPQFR
Protocol: (§1) The activities were determined as an initial rate of cleavage of the peptide p-nitroanilide by the enzyme. The cleavage product, p-nitroaniline, absorbs at 405 nm with a molar extinction coefficient of 9920M^-1 cm^-1.
(§2) 50 mM Tris HCl, 150 mM NaCl, 2.5 mM CaCl2, and
3. Human tissue plasminogen activator (tPA) (Two chains, Sigma) stock solution: 1 mg/mL, stored at -80° C. (working solution (2×): 1361 ng/mL in assay buffer, prepare prior to use).
3. S2288 (tPA assay) stock solution: 10 mM in deionized H2 O, stored at 4° C. (working solution (4×): 1484 μM in assay buffer).
(§3) Assays were performed in 96-well microtiter plates in a total volume of 200 μl. […] Concentrations of the standard inhibitor compound in the assay were from 5 μM to 0.021 μM in 1 to 3 dilution. Concentration of the test compounds in the assay typically were from 10 μM to 0.041 μM in 1 to 3 dilution. For potent test compounds, the concentrations used in the factor Xa assay were further diluted 100 fold (100 nM to 0.41 nM) or 1000 fold (10 nM to 0.041 nM). […]
(§4) The enzyme kinetics were measured at 405 nm at 10 seconds intervals for five minutes in a THERMOmax plate reader at ambient temperature.
(§5) Enzyme rates were calculated as mOD/min based on the first two minutes readings. The IC50 values were determined by fitting the data to the log-logit equation (linear) or the Morrison equation (non-linear) with an EXCEL spread-sheet. […]

Human thrombin = biological target: T2, Human thrombin (Homo sapiens, UniProt P00734); assay: In vitro chromogenic assay for thrombin; format: biochemical; settings: substrate concentration stated equal to Km under the present assay conditions; pH 7.5, ambient temperature; read-out: Km (S2302)
T2 construct: forms the prothrombinase complex which converts prothrombin to thrombin; purchased Enzyme Research Lab
Protocol: as §1, §2
2. Human thrombin stock solution: Stored at -80° C. (working solution (2×): 1200 ng/mL or 40 nM in assay buffer, prepare prior to use).
2. S2302 (Thrombin assay) stock solution: 10 mM in deionized H2 O, stored at 4° C. (working solution (4×): 1200, μM in assay buffer).
as §3, §4, §5

| Km [1] | Km (Human thrombin) | Structure (SMILES) |
| --- | --- | --- |
| 371 µM | – | CC[C@@H](C)[C@@H](N)C(=O)N1CCC[C@H]1C(=O)N[C@@H](CCCN=C(N)N)C(=O)Nc1ccc([N+](=O)[O-])cc1 [Example S2288] (H-[dI]-Pro-Arg-pNA) |
| – | 300 µM | N=C(N)NCCC[C@H](NC(=O)[C@H](Cc1ccccc1)NC(=O)[C@H]1CCCN1)C(=O)Nc1ccc([N+](=O)[O-])cc1 [Example S2302] (H-[dP]-Phe-Arg-pNA) |
